In patent publication US9567342B2, “Certain protein kinase inhibitors” (SHANGHAI FOCHON PHARMACEUTICAL CO., LTD., priority 2012, dated 2017):

Tests used:
NCI-H2228 cells = experiment: In vivo antitumor activity, NCI-H2228 cells implanted sc in nude mice; settings: QD, oral, NCI-H2228 xenograft
Description: Male nude mice (6-week old) were housed in a specific pathogen-free room with a 12 h light/dark schedule at 20-25° C. and were fed an autoclaved chow diet and water ad libitum.
NCI-H2228 cells at a density of […] in 200 μL were first implanted sc into the right flank of each nude mice and then allowed to grow to above 230 mm^3, the mice were randomly assigned into control and treatment groups (n=6 per group for compound treated group, n=12 per group for vehicle group). Vehicle control group were given vehicle alone, and treatment groups were received Compound 4, LDK378 or Crizotinib as indicated doses via oral administration once daily for 21 days. The mice tumor volumes in each group were measured twice per week.

SU-DHL-1 cells = experiment: Inhibition activity of cell proliferation (CCK-8 assay); assay type: cell-based; settings: Homo sapiens, 72 h exposure

IC50 (SU-DHL-1 cells): 94.6 to 339 nM
SMILES: Cc1cc(Nc2ncc(Cl)c(Nc3ccccc3S(=O)(=O)C(C)C)n2)c(OC(C)C)cc1C1CCNCC1 [LDK378]
Mean relative tumor volume (RTV) ± S.E. (NCI-H2228 cells; D0, 20 mg/kg): 100.00 | Mean relative tumor volume (RTV) ± S.E. (NCI-H2228 cells; D4, 20 mg/kg): 71.66 | Mean relative tumor volume (RTV) ± S.E. (NCI-H2228 cells; D7, 20 mg/kg): 56.79 | Mean relative tumor volume (RTV) ± S.E. (NCI-H2228 cells; D11, 20 mg/kg): 49.09 | Mean relative tumor volume (RTV) ± S.E. (NCI-H2228 cells; D14, 20 mg/kg): 48.58 | Mean relative tumor volume (RTV) ± S.E. (NCI-H2228 cells; D18, 20 mg/kg): 35.67 | Mean relative tumor volume (RTV) ± S.E. (NCI-H2228 cells; D21, 20 mg/kg): 31.44
